# Reference: patent US20260184693A1, “INHIBITORS OF SOLUTE CARRIER FAMILY 6A MEMBER 19 (SLC6A19) AND METHODS OF USE THEREOF” (Maze Therapeutics, Inc., priority 2022, published 2026)
# Experiments:
# [1] = biological target: T1, human SLC6A19 (Homo sapiens, UniProt Q695T7); assay: Example B2: 13C6,15N-isoleucine uptake, RapidFire mass spectrometry, in CHO cells with doxycycline-inducible expression of human SLC6A19 and TMEM27; format: cell-based; conditions: read-out: SLC6A19_RapidFire Uptake Assay IC50
# T1 construct: expressed in transfected cells
# T1 sequence (Q695T7 1-634): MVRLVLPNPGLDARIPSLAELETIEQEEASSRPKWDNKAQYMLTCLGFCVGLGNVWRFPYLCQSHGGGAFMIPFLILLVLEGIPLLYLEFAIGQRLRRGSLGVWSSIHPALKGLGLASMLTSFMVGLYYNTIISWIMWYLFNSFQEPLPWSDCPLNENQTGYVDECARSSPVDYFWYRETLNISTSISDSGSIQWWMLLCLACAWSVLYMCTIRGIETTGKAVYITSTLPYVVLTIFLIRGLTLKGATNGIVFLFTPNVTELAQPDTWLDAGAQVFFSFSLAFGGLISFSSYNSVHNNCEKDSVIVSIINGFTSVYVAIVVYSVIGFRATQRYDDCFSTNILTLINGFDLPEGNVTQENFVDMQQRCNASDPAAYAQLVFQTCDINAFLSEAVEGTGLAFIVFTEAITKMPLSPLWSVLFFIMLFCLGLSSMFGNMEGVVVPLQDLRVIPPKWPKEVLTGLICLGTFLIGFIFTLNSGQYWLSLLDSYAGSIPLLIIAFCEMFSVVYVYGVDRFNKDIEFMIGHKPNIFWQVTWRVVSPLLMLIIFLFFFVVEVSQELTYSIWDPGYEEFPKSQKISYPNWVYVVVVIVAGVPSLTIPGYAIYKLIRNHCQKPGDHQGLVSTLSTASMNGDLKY
# T1 sequence (Q9HBJ8 15-222 partner): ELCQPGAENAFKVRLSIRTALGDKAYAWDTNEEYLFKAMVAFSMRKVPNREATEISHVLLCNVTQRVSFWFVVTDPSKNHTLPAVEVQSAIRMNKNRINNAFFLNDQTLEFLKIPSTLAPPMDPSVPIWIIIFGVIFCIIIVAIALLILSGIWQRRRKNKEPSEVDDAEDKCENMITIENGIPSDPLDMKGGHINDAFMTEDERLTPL
# Outline: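 Labelled isoleucine (13C6,15N; 2 mM added) was given 20 min at 37 °C, following a 20-min compound pre-treatment (10-point 2-fold series, duplicate). Cells were doxycycline-induced CHO co-expressing human SLC6A19 and TMEM27. Intracellular label was quantified by RapidFire-MS peak areas against a 13C-leucine standard.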
# [2] = biological target: T1, human SLC6A19; assay: Example B-1: L-[3H]leucine uptake, liquid scintillation, in CHO cells with doxycycline-inducible expression of human SLC6A19 and TMEM27; format: cell-based; conditions: read-out: SLC6A19_Radioligand Uptake Assay IC50
# Experimental: CHO cells with doxycycline-inducible expression of human SLC6A19 and TMEM27 were maintained in T150 cell culture treated flasks using cell culture media, which consisted of 1×DMEM/F12 (Gibco, 11330057), 10% Tet System-Approved FBS (Gibco, A4736401), 100 U/mL Penicillin-Streptomycin (Gibco, 15140122), 1×GlutaMAX™ Supplement (Gibco, 35050061), 1 mM Sodium Pyruvate (Gibco, 11360070), 1.1 mg/mL Sodium Bicarbonate (Gibco, 25080094), 5 μg/mL Blasticidin (InvivoGen, ant-bl-1), 150 μg/mL Hygromycin B Gold (InvivoGen, ant-hg-5), and 500 μg/mL G418 (Sigma-Aldrich, G8168-100 mL). In preparation for the assay, this media was aspirated and 5 mL of TryμLE™ Express Enzyme (Gibco, 12605010) was added to each flask to initiate cell dissociation. The flasks were then incubated (humidified, 37° C. with 5% CO2) for 2 minutes. After incubation, 10 mL of pre-warmed cell culture media was added to each flask. The cell suspension was collected and centrifuged for 5 minutes at 200xg.
# The supernatant was aspirated and the pellet was resuspended in 5 mL pre-warmed cell culture media. The resuspended cells were counted using the Countess Cell Counting Chamber (Invitrogen) and the cell concentration of the suspension was readjusted to 1 million live cells/mL using pre-warmed cell culture media. 25 uL/well (25,000 cells/well) of readjusted cell suspension was dispensed into Poly-D-Lysine 384-well white/clear plates (Corning, 354660) using a MultiDrop Combi (Thermo Electron Corp). To induce expression of Human SLC6A19 and TMEM27, 25 uL/well of cell culture media containing 2 μg/mL doxycycline was added to the first 23 columns of each plate resulting in a final concentration of […] doxycycline. 25 μL/well of cell culture media was added to the last column of each plate, to act as negative control wells for Human SLC6A19 and TMEM27 expression. Assay plates were then incubated (humidified, 37° C. with 5% CO2) for 18 hours. After incubation, the media was aspirated and the wells were washed 4 times with pre-warmed HBSS (Sigma-Aldrich, H8264-1L) using an Apricot S-Pipette S2 (Apricot Designs), such that 5 uL/well HBSS was remaining at the end of each wash. […] At this step, the final in-well DMSO concentration in the assay plate is 0.5%. All compounds were plated in a duplicate 8-point dilution series that consisted of 3-fold dilutions. […] Afterwards, 15 uL/well of 3.2 mM hot:cold leucine solution (1:15000 ratio of L-[3,4,5-3H(N)] Leucine (Perkin Elmer, NET460001MC) to L-Leucine (Sigma-Aldrich, L8912-25G) diluted with HBSS (Sigma-Aldrich, H8264-1L)) was added using the Viaflo 384 (Integra), for a final concentration of 1.6 mM hot:cold leucine solution. The plates were then incubated (humidified, 37° C. with 5% CO2) for 20 minutes to conduct the uptake reaction. Immediately after the incubation, the plates were washed 4 times with HBSS (Sigma-Aldrich, H8264-1L) using the ELx405 Microplate Washer (Biotek) to terminate the uptake reaction. After the washes, 50 uL/well Ultima Gold Scintillation Cocktail (Perkin Elmer, 6013326) was added to each well using the Viaflo 384 (Integra). The plates were then incubated (humidified, 37° C. with 5% CO2) on a plate shaker at 200 rpm for 2 hours. After incubation, the plates were removed from the shaker and kept at room temperature for 15 minutes.
# Liquid scintillation analysis was performed using the MicroBeta2 Microplate Counter (Perkin Elmer). Activity (%) was derived by normalizing the average of positive control compound treated wells to 0% and the average of DMSO (negative control) wells to 100%. Collaborative Drug Discovery software was used for graphing data.
Compound,IC50 [1] [nM],IC50 [2] [nM]
"CN(C(=O)NCc1cc2cc(Cl)ccc2[nH]1)[C@@H]1CCCN(C(=O)c2ccccc2O)C1 [Compound 196, (R)-3-((5-chloro-1H-indol-2-yl)methyl)-1-(1-(2-hydroxybenzoyl)piperidin-3-yl)-1-methylurea]",518,640
"CN(C(=O)NCc1cc2cc(Cl)ccc2[nH]1)[C@@H]1CCCN(C(=O)Cc2ccn(C)n2)C1 [Compound 197, (R)-3-((5-chloro-1H-indol-2-yl)methyl)-1-methyl-1-(1-(2-(1-methyl-1H-pyrazol-3-yl)acetyl)piperidin-3-yl)urea]",396,219
"CN(C(=O)NCc1cc2cc(Cl)ccc2[nH]1)[C@@H]1CCCN(C(=O)c2ccn(CC(F)(F)F)n2)C1 [Compound 198, (R)-3-((5-chloro-1H-indol-2-yl)methyl)-1-methyl-1-(1-(1-(2,2,2-trifluoroethyl)-1H-pyrazole-3-carbonyl)piperidin-3-yl)urea]",163,232
"CN(C(=O)NCc1cc2cc(Cl)ccc2[nH]1)[C@@H]1CCCN(C(=O)Cc2ccon2)C1 [Compound 201, (R)-3-((5-chloro-1H-indol-2-yl)methyl)-1-(1-(2-(isoxazol-3-yl)acetyl)piperidin-3-yl)-1-methylurea]",227,205
"CCc1ccc2[nH]c(CNC(=O)N(C)[C@@H]3CCCN(C(C)=O)C3)cc2c1 [Compound 217, (R)-1-(1-acetylpiperidin-3-yl)-3-((5-ethyl-1H-indol-2-yl)methyl)-1-methylurea]",738,574
"CCc1ccc2cc(CNC(=O)N(C)[C@@H]3CCCN(C(C)=O)C3)[nH]c2c1 [Compound 219, (R)-1-(1-acetylpiperidin-3-yl)-3-((6-ethyl-1H-indol-2-yl)methyl)-1-methylurea]",12900,> 10000
"CC(=O)N1CCC[C@@H](N(C)C(=O)NCc2cc3cc(C4CC4)ccc3[nH]2)C1 [Compound 220, (R)-1-(1-acetylpiperidin-3-yl)-3-((5-cyclopropyl-1H-indol-2-yl)methyl)-1-methylurea]",953,794
"CC(=O)N1CCC[C@@H](N(C(=O)NCc2cc3cc(Cl)ccc3[nH]2)C2CC2)C1 [Compound 222, (R)-1-(1-acetylpiperidin-3-yl)-3-((5-chloro-1H-indol-2-yl)methyl)-1-cyclopropylurea]",63.3,193
"CC(=O)N1CCC[C@@H](N(C)C(=O)NCc2cc3[nH]cc(C)c3cc2C)C1 [Compound 233, (R)-1-(1-acetylpiperidin-3-yl)-3-((3,5-dimethyl-1H-indol-6-yl)methyl)-1-methylurea]",9120,15600
"Cc1conc1N1CCC[C@@H](N(C)C(=O)NCc2cc3cc(Cl)ccc3[nH]2)C1 [Compound 234, (R)-3-((5-chloro-1H-indol-2-yl)methyl)-1-methyl-1-(1-(4-methylisoxazol-3-yl)piperidin-3-yl)urea]",255,367
"Cc1cc(C(=O)N2CCC[C@@H](N(C)C(=O)NCc3cc4cc(Cl)ccc4[nH]3)C2)nn1C [Compound 236, (R)-3-((5-chloro-1H-indol-2-yl)methyl)-1-(1-(1,5-dimethyl-1H-pyrazole-3-carbonyl)piperidin-3-yl)-1-methylurea]",805,975
"CN(C(=O)NCc1cc2cc(Cl)ccc2[nH]1)[C@@H]1CCCN(C(=O)c2cccnc2)C1 [Compound 237, (R)-3-((5-chloro-1H-indol-2-yl)methyl)-1-methyl-1-(1-nicotinoylpiperidin-3-yl)urea]",1210,434

# Other lines, results leading:
IC50 [1] [nM],IC50 [2] [nM],Compound
582,434,"CN(C(=O)NCc1cc2cc(Cl)ccc2[nH]1)[C@@H]1CCCN(C(=O)Cc2cn[nH]c2)C1 [Compound 199, (R)-1-(1-(2-(1H-pyrazol-4-yl)acetyl)piperidin-3-yl)-3-((5-chloro-1H-indol-2-yl)methyl)-1-methylurea]"
512,350,"Cc1nc(C(=O)N2CCC[C@@H](N(C)C(=O)NCc3cc4cc(Cl)ccc4[nH]3)C2)co1 [Compound 200, (R)-3-((5-chloro-1H-indol-2-yl)methyl)-1-methyl-1-(1-(2-methyloxazole-4-carbonyl)piperidin-3-yl)urea]"
689,168,"CN(C(=O)NCc1cc2cc(Cl)ccc2[nH]1)[C@@H]1CCCN(C(=O)Cc2cocn2)C1 [Compound 202, (R)-3-((5-chloro-1H-indol-2-yl)methyl)-1-methyl-1-(1-(2-(oxazol-4-yl)acetyl)piperidin-3-yl)urea]"
763,256,"CN(C(=O)NCc1cc2cc(Cl)ccc2[nH]1)[C@@H]1CCCN(C(=O)Cc2ncco2)C1 [Compound 204, (R)-3-((5-chloro-1H-indol-2-yl)methyl)-1-methyl-1-(1-(2-(oxazol-2-yl)acetyl)piperidin-3-yl)urea]"
647,273,"CC(=O)N1CCC[C@@H](N(C)C(=O)NCc2cc3cc(C)ccc3[nH]2)C1 [Compound 218, (R)-1-(1-acetylpiperidin-3-yl)-1-methyl-3-((5-methyl-1H-indol-2-yl)methyl)urea]"
4610,2410,"CC(=O)N1CCC[C@@H](N(C(=O)NCc2cc3cc(Cl)ccc3[nH]2)C(C)C)C1 [Compound 221, (R)-1-(1-acetylpiperidin-3-yl)-3-((5-chloro-1H-indol-2-yl)methyl)-1-isopropylurea]"
45.3,230,"CCN(C(=O)NCc1cc2cc(Cl)ccc2[nH]1)[C@@H]1CCCN(C(=O)C2CCC2)C1 [Compound 232, (R)-3-((5-chloro-1H-indol-2-yl)methyl)-1-(1-(cyclobutanecarbonyl)piperidin-3-yl)-1-ethylurea]"
893,673,"CC(=O)N1CCC[C@@H](N(C)C(=O)NCc2cc3[nH]cc(C)c3cc2Cl)C1 [Compound 235, (R)-1-(1-acetylpiperidin-3-yl)-3-((5-chloro-3-methyl-1H-indol-6-yl)methyl)-1-methylurea]"
